Measurements reported in patent US20060019410A1, “Apparatus, kits and methods for evaluating binding interactions, for detecting and quantifying binding molecules, and for sample preparation” (Qualyst, Inc., priority 2004, published 2006).

Assays:
HSA [1] = target: T1, HSA (Homo sapiens, UniProt P02768); assay: percent recovery from HSA with the 96-well ACCUPRO DCC device; type: in vitro ADME
Protocol: Chemical Analysis. […] For a given sample, the peak areas of the particular drug and its internal standard are measured and a ratio of these two values is determined. The peak area ratio (PAR) of the (+) DCC-extracted sample is divided by its corresponding (−) DCC extracted sample PAR to determine a percent recovery value. This recovery value is not a % HSA bound value.
Preparation of DCC plate. Prepare a DCC filter plate with 5 mg and 10 mg bed sizes as described in Example 1 and 3.
Set-Up of Incubation Study.

HSA [2] = target: T1, HSA; conditions: 1 μM drug + 1 μM DS in HSA; 10 mg DCC bed
Protocol: Set-Up of Incubation Study. […] Allow samples to sit at room temperature for one hour.
DCC Extraction Procedure; Protein Precipitation Procedure; Final Sample Preparation. Performed as described in Example 1 and 3.
Chemical Analysis. The analysis of DS and the internal standard is conducted with liquid chromatography coupled to mass spectrometry with electrospray ionization. For a given sample, the peak area of the DS and the internal standard are measured and a ratio (PAR) of these two values is determined.

[3] = reported; cited from earlier work
AAG = conditions: reported; cited from earlier work

T1 sequence (P02768 25-609): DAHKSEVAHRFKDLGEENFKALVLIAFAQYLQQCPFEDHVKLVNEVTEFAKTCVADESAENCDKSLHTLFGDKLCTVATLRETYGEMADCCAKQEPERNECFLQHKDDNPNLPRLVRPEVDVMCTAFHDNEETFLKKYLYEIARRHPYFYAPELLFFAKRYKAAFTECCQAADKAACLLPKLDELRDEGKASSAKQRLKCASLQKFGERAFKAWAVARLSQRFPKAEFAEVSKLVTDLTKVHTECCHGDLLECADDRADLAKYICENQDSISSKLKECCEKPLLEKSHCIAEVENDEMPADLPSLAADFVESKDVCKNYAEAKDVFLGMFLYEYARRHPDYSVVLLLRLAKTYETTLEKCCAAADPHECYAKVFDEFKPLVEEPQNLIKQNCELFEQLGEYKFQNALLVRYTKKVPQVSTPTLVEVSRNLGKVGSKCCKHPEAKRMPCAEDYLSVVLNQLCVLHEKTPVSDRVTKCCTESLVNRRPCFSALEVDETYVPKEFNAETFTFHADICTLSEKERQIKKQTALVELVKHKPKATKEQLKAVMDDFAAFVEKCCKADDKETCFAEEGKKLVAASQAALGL

Row | SMILES | percent recovery (relative ranking) (HSA [1]; HSA, naproxen versus ketorolac) | percent recovery from HSA (HSA [1]; drug at 1 μM, 5 mg and 10 mg DCC bed, compared with the usual concentrations (217 μM and 0.5 μM)) | DS (dansylsarcosine) PAR in final sample preparation (HSA [2]) | plasma bound [3] | affinity to AAG / HSA (AAG)
1 | O=C(c1ccccc1)c1ccc2n1CCC2C(=O)O (centres unmarked) [Ketorolac] | lower percent recovery | comparable to values obtained above | higher PAR | – | –
2 | CN(C)CCCN1c2ccccc2Sc2ccc(Cl)cc21 [Chlorpromazine] | – | – | – | 95-98% | high affinity to AAG and not HSA
